In the NIST ThermoML archive (doi:10.1016/j.fluid.2010.03.042):
Numbers after ± are expanded uncertainties.

Test: xn = mol fraction of the nth substance listed
Details: Liquid, Vibrating tube method

SMILES: CCCCO [butan-1-ol] + O=C=O
- mass density (313.22 K, x2 = 0.1294): 806.8 ± 0.5 kg/m3
- mass density (313.22 K, x2 = 0.2204): 816.8 ± 0.6 kg/m3
- mass density (313.22 K, x2 = 0.2354): 818.6 ± 0.7 kg/m3
- mass density (313.22 K, x2 = 0.3409): 823.7 ± 0.5 kg/m3
- mass density (313.22 K, x2 = 0.4311): 826.1 ± 0.4 kg/m3
- mass density (313.22 K, x2 = 0.5847): 827.7 ± 0.9 kg/m3
- mass density (313.22 K, x2 = 0.8543): 797 ± 0.4 kg/m3
- mass density (363.17 K, x2 = 0.1186): 711.3 ± 1.6 kg/m3
- mass density (363.17 K, x2 = 0.1985): 762 ± 1.3 kg/m3
- mass density (363.17 K, x2 = 0.2821): 764.7 ± 0.4 kg/m3
- mass density (363.17 K, x2 = 0.3623): 765.5 ± 0.4 kg/m3
- mass density (363.17 K, x2 = 0.4604): 765.5 ± 0.4 kg/m3
- mass density (363.17 K, x2 = 0.5637): 760.6 ± 0.8 kg/m3
- mass density (363.17 K, x2 = 0.6867): 750.9 ± 3 kg/m3
- mass density (363.17 K, x2 = 0.7105): 745.8 ± 4.9 kg/m3
- mass density (363.17 K, x2 = 0.7597): 726.6 ± 5.9 kg/m3

SMILES: CCC(C)O (centres undefined) [butan-2-ol] + O=C=O
- mass density (313.21 K, x2 = 0.166): 795.6 ± 0.8 kg/m3
- mass density (313.21 K, x2 = 0.2247): 807.4 ± 0.6 kg/m3
- mass density (313.21 K, x2 = 0.3339): 813.7 ± 0.5 kg/m3
- mass density (313.21 K, x2 = 0.435): 816.8 ± 0.5 kg/m3
- mass density (313.21 K, x2 = 0.5177): 818.9 ± 0.4 kg/m3
- mass density (313.21 K, x2 = 0.6282): 818.5 ± 0.4 kg/m3
- mass density (313.21 K, x2 = 0.7453): 817.2 ± 0.5 kg/m3
- mass density (313.21 K, x2 = 0.7457): 817.5 ± 0.5 kg/m3
- mass density (313.21 K, x2 = 0.8604): 815.4 ± 0.6 kg/m3
- mass density (313.21 K, x2 = 0.9197): 813.8 ± 0.7 kg/m3
- mass density (333.12 K, x2 = 0.137): 771.6 ± 0.5 kg/m3
- mass density (333.12 K, x2 = 0.2174): 782.3 ± 0.5 kg/m3
- mass density (333.12 K, x2 = 0.3029): 786.1 ± 0.5 kg/m3
- mass density (333.12 K, x2 = 0.3944): 790.2 ± 0.5 kg/m3
- mass density (333.12 K, x2 = 0.4533): 791.8 ± 0.4 kg/m3
- mass density (333.12 K, x2 = 0.5642): 790.7 ± 0.4 kg/m3
- mass density (333.12 K, x2 = 0.6485): 787.2 ± 0.8 kg/m3
- mass density (333.12 K, x2 = 0.7937): 775.5 ± 2.3 kg/m3
- mass density (333.12 K, x2 = 0.8376): 758.6 ± 12 kg/m3
- mass density (363.06 K, x2 = 0.1273): 743.6 ± 0.4 kg/m3
- mass density (363.06 K, x2 = 0.1978): 746.7 ± 0.4 kg/m3
- mass density (363.06 K, x2 = 0.2588): 747.7 ± 0.4 kg/m3
- mass density (363.06 K, x2 = 0.2793): 748.3 ± 0.5 kg/m3
- mass density (363.06 K, x2 = 0.3584): 743.8 ± 0.6 kg/m3
- mass density (363.06 K, x2 = 0.4344): 738.3 ± 1.6 kg/m3
- mass density (363.06 K, x2 = 0.5565): 709.3 ± 3.9 kg/m3
- mass density (363.06 K, x2 = 0.6978): 647.2 ± 6 kg/m3
- mass density (363.06 K, x2 = 0.7871): 611.7 ± 6.3 kg/m3
